Experimental data as given in patent publication US12454534B2, “Pyrrolo[2,3-b]pyrazines as HPK1 inhibitor and the use thereof” (BEIGENE, LTD., priority 2019, dated 2025).

Key:
[1] = target: T1, HPK1 kinase (aa1-346, Life Technologies) (Homo sapiens, UniProt Q92918); assay: HPK1 Kinase Activity Assay at 1 mM ATP (TR-FRET); assay type: biochemical; conditions: HPK1 40 nM, read-out: Enzymatic activity IC50
T1 construct: HPK1 kinase (aa1-346, Life Technologies); purchased Life Technologies
T1 sequence (Q92918 1-346): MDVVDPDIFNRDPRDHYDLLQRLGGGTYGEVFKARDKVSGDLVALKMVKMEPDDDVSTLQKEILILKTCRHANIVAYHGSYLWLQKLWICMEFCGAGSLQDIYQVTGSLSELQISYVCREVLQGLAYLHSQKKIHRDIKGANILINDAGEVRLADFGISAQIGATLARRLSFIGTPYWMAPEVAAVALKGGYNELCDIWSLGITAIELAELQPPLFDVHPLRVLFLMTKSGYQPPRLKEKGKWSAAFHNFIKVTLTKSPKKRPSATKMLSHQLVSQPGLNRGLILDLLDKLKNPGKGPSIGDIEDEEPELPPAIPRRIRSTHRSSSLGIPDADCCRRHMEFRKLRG
Method in brief: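 HPK1 (aa1-346, 40 nM) pre-incubated 60 min at room temperature with compound (0-10 μM), then reacted 120 min with 1 mM ATP and 0.5 μM STK1 substrate in HEPES pH 7.0 with MgCl2. Phosphorylation read by TR-FRET (665/620 nm); IC50 from four-parameter logistic fit.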

HEK293 cells = assay: HEK293 cell viability assay (CellTiter-Glo); assay type: cell-based; conditions: 3-day exposure, 0 to 10 μM
Protocol: Cytotoxicity on HEK293 Cells Proliferation (HEK293 Cell Viability Assay)
HEK293 cell line were used in this study. Cell lines were maintained in DMEM (Dulbecco's Modified Eagle Medium) supplemented with 10% fetal bovine serum (Thermo Fisher), 50 units/mL penicillin and streptomycin (Thermo Fisher) and kept at 37° C. in a humidified atmosphere containing 5% CO2 in air. Cell lines were reinstated from frozen stocks that were laid down within 50 passages from the original cells purchased. The growth-inhibitory activity of compounds in HEK293 cells was determined using CellTiter-Glo luminescent cell viability assay (Promega). 3000 cells per well were seeded into a 96-well plate to ensure logarithmic growth for 3 days treatment period. Cells were treated with a 10-point dilution series. The final compound concentration was from 0 to 10 μM. Following a 3-day exposure to the test compounds, 30 μL of CellTiter-Glo reagent was added into 100 μL cell culture medium per well. Mixture was mixed on an orbital shaker for 2 minutes to allow cell lysis, followed by 10 minutes of incubation at room temperature to allow development and stabilization of luminescent signal, which corresponded to the quantity of ATP and thus the quantity of metabolically active cells. Luminescent signal was measured using PHERAstar FS reader (BMG Labtech). IC50 values for cell viability were determined with Dotmatics.

Row | Structure (SMILES) | IC50 [1] | IC50 (HEK293 cells) | IC50 (HEK293 cells; Homo sapiens, HEK293, 72 h)
1 | Cc1cc(-c2cnc3[nH]cc(-c4ccc(C(=O)N(C)CC(C)(C)O)cc4)c3n2)cc2c1CCN(C)C2 [Example 38, 4-(2-(2,5-dimethyl-1,2,3,4-tetrahydroisoquinolin-7-yl)-5H-pyrrolo[2,3-b]pyrazin-7-yl)-N-(2-hydroxy-2-methylpropyl)-N-methylbenzamide] | 65 nM | 2190 nM | –
2 | Cc1cc(-c2c[nH]c3ncc(-c4cc(C)c5c(c4)CN(C)CC5)nc23)ccc1C(=O)N1CC2(COC2)C1 [Example 16, (4-(2-(2,5-dimethyl-1,2,3,4-tetrahydroisoquinolin-7-yl)-5H-pyrrolo[2,3-b]pyrazin-7-yl)-2-methylphenyl) (2-oxa-6-azaspiro[3.3]heptan-6-yl)methanone] | 88 nM | – | > 10000 nM
3 | Cc1cc(-c2c[nH]c3ncc(-c4cc(C)c5c(c4)CCN(C)C5)nc23)ccc1C(=O)N(C)C [Example 126, 4-(2-(2,8-dimethyl-1,2,3,4-tetrahydroisoquinolin-6-yl)-5H-pyrrolo[2,3-b]pyrazin-7-yl)-N, N, 2-trimethylbenzamide] | 43 nM | – | > 10000 nM
4 | COc1cc(-c2cnc3[nH]cc(-c4ccc(C(=O)N(C)C[C@H](C)O)c(C)c4)c3n2)cc2c1CN(C)CC2 [Example 6, (S)—N-(2-hydroxypropyl)-4-(2-(8-methoxy-2-methyl-1,2,3,4-tetrahydroisoquinolin-6-yl)-5H-pyrrolo[2,3-b]pyrazin-7-yl)-N, 2-dimethylbenzamide] | 32 nM | – | 5560 nM
5 | Cc1cc(-c2cnc3[nH]cc(-c4ccc(C(=O)N(C)CC(C)(C)O)cc4)c3n2)cc2c1CCN(C)C2 [Example 20, 4-(2-(2,5-dimethyl-1,2,3,4-tetrahydroisoquinolin-7-yl)-5H-pyrrolo[2,3-b]pyrazin-7-yl)-N-(2-hydroxy-2-methylpropyl)-N-methylbenzamide] | 65 nM | – | 3870 nM
6 | Cc1cc(-c2c[nH]c3ncc(-c4cc(C)c5c(c4)CN(C)CC5)nc23)ccc1C(=O)N(C)C [Example 2, 4-(2-(2,5-dimethyl-1,2,3,4-tetrahydroisoquinolin-7-yl)-5H-pyrrolo[2,3-b]pyrazin-7-yl)-N, N, 2-trimethylbenzamide] | 26 nM | – | 3340 nM
7 | CN1CCc2c(cc(-c3cnc4[nH]cc(-c5ccc(C(=O)N(C)C)cc5)c4n3)cc2C(F)F)C1 [Example 95, 4-(2-(5-(difluoromethyl)-2-methyl-1,2,3,4-tetrahydroisoquinolin-7-yl)-5H-pyrrolo[2,3-b]pyrazin-7-yl)-N, N-dimethylbenzamide] | 71 nM | – | 5180 nM
8 | COc1cc(-c2cnc3[nH]cc(-c4ccc(C(=O)N5CC6(COC6)C5)cc4)c3n2)cc2c1CN(C)CC2 [Example 15, (4-(2-(8-methoxy-2-methyl-1,2,3,4-tetrahydroisoquinolin-6-yl)-5H-pyrrolo[2,3-b]pyrazin-7-yl)phenyl) (2-oxa-6-azaspiro[3.3]heptan-6-yl)methanone] | 17 nM | – | 1040 nM
9 | COc1cc(-c2cnc3[nH]cc(-c4ccc(C(=O)N(C)C[C@@H](C)O)cc4)c3n2)cc2c1CN(C)CC2 [Example 10, (R)—N-(2-hydroxypropyl)-4-(2-(8-methoxy-2-methyl-1,2,3,4-tetrahydroisoquinolin-6-yl)-5H-pyrrolo[2,3-b]pyrazin-7-yl)-N-methylbenzamide] | 11 nM | – | 1420 nM
10 | Cc1cc(-c2cnc3[nH]cc(-c4ccc(C(=O)N(C)C)cc4)c3n2)cc2c1CCN(C)C2 [Example 1, 4-[2-(2,5-dimethyl-3,4-dihydro-1H-isoquinolin-7-yl)-5H-pyrrolo[2,3-b]pyrazin-7-yl]-N, N-dimethylbenzamide] | 24 nM | – | 3650 nM
11 | COc1cc(-c2cnc3[nH]cc(-c4ccc(C(=O)N(C)C[C@H](C)O)cc4)c3n2)cc2c1CN(C)CC2 [Example 3, (S)—N-(2-hydroxypropyl)-4-(2-(8-methoxy-2-methyl-1,2,3,4-tetrahydroisoquinolin-6-yl)-5H-pyrrolo[2,3-b]pyrazin-7-yl)-N-methylbenzamide] | 12 nM | – | 1270 nM
12 | CCN1CCc2c(C)cc(-c3cnc4[nH]cc(-c5ccc(C(=O)N(C)C)c(C)c5)c4n3)cc2C1 [Example 127, 4-(2-(2-ethyl-5-methyl-1,2,3,4-tetrahydroisoquinolin-7-yl)-5H-pyrrolo[2,3-b]pyrazin-7-yl)-N, N, 2-trimethylbenzamide] | 86 nM | – | 3130 nM
13 | COCCCN(C)C(=O)c1ccc(-c2c[nH]c3ncc(-c4cc(C)c5c(c4)CN(C)CC5)nc23)cc1 [Example 40, 4-(2-(2,5-dimethyl-1,2,3,4-tetrahydroisoquinolin-7-yl)-5H-pyrrolo[2,3-b]pyrazin-7-yl)-N-(3-methoxypropyl)-N-methylbenzamide] | 17 nM | – | –
14 | Cc1cc(-c2c[nH]c3ncc(-c4cc(C)c5c(c4)CN(CCC(=O)N4CCN(C)CC4)CC5)nc23)ccc1C(=O)N(C)C [Example 24, N, N, 2-trimethyl-4-(2-(5-methyl-2-(3-(4-methylpiperazin-1-yl)-3-oxopropyl)-1,2,3,4-tetrahydroisoquinolin-7-yl)-5H-pyrrolo[2,3-b]pyrazin-7-yl)benzamide] | 75 nM | – | –
15 | Cc1cc(-c2cnc3[nH]cc(-c4ccc(C(=O)N(C)C[C@@H](C)O)cc4)c3n2)cc2c1CCN(CCN1CCOCC1)C2 [Example 9, (R)—N-(2-hydroxypropyl)-N-methyl-4-(2-(5-methyl-2-(2-morpholinoethyl)-1,2,3,4-tetrahydroisoquinolin-7-yl)-5H-pyrrolo[2,3-b]pyrazin-7-yl)benzamide] | 62 nM | – | –
16 | Cc1cc(-c2cnc3[nH]cc(-c4ccc(C(=O)N(C)C)cc4)c3n2)cc2c1CCN(CCC(=O)NCCN1CCN(C)CC1)C2 [Example 49, N, N-dimethyl-4-(2-(5-methyl-2-(3-((2-(4-methylpiperazin-1-yl)ethyl)amino)-3-oxopropyl)-1,2,3,4-tetrahydroisoquinolin-7-yl)-5H-pyrrolo[2,3-b]pyrazin-7-yl)benzamide] | 67 nM | – | –
